Laboratory results from the supplement of paper PMC10307832.

Assays:
Assay in all cases: relative viability (nuclei count vs DMSO), 5 days (fraction); higher = more cells survive
Trametinib + Navitoclax = compound: CC(=O)Nc1cccc(-n2c(=O)n(C3CC3)c(=O)c3c(Nc4ccc(I)cc4F)n(C)c(=O)c(C)c32)c1 [Trametinib] + CC1(C)CCC(c2ccc(Cl)cc2)=C(CN2CCN(c3ccc(C(=O)NS(=O)(=O)c4ccc(N[C@H](CCN5CCOCC5)CSc5ccccc5)c(S(=O)(=O)C(F)(F)F)c4)cc3)CC2)C1 [Navitoclax] (partner 0.5 µM)
Outline: (§1)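 Lung cancer cell lines were seeded in 1536-well plates and dosed by pin tool the next day, with either a single drug or a fixed anchor-drug dose combined with five library-drug doses (not always all listed) spaced in √10 steps. Five days later, one step fixed the cells and stained their nuclei (final 0.05% Triton X-100, 1% formaldehyde, 1 ug/ml Hoechst), and nuclei were counted on 4× images. Relative viability is the nuclei count in treated wells divided by the count in vehicle wells, and each value is the median of duplicate plates.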

Trametinib + Tozasertib = compound: CC(=O)Nc1cccc(-n2c(=O)n(C3CC3)c(=O)c3c(Nc4ccc(I)cc4F)n(C)c(=O)c(C)c32)c1 [Trametinib] + Cc1cc(Nc2cc(N3CCN(C)CC3)nc(Sc3ccc(NC(=O)C4CC4)cc3)n2)n[nH]1 [Tozasertib] (partner 0.1 µM)
Outline: as §1

[1] = compound: CN1C=C(C2=CC=CC=C21)/C=C\3/C4=C(C=CC=N4)NC3=O + CCNC(=O)c1noc(-c2cc(C(C)C)c(O)cc2O)c1-c1ccc(CN2CCOCC2)cc1 [Luminespib] (partner 0.01 µM)
Outline: as §1

[2] = compound: CN1C=C(C2=CC=CC=C21)/C=C\3/C4=C(C=CC=N4)NC3=O + NC(=O)Nc1cc(-c2cccc(F)c2)sc1C(=O)N[C@H]1CCCNC1 [AZD7762] (partner 0.2 µM)
Outline: as §1

Work on NCI-H441 yielded a relative viability (Trametinib + Navitoclax; first compound 0.0025 µM) of 0.761, a relative viability (Trametinib + Navitoclax; first compound 0.007906 µM) of 0.633 and a relative viability (Trametinib + Navitoclax; first compound 0.025 µM) of 0.572. The relative viability (Trametinib + Navitoclax; first compound 0.07906 µM) was 0.312, the relative viability (Trametinib + Navitoclax; first compound 0.25 µM) was 0.278 and the relative viability (Trametinib + Tozasertib; first compound 0.0025 µM) was 0.647. For the same cell line, the relative viability (Trametinib + Tozasertib; first compound 0.007906 µM) was 0.677, the relative viability (Trametinib + Tozasertib; first compound 0.025 µM) was 0.523 and the relative viability (Trametinib + Tozasertib; first compound 0.07906 µM) was 0.461. It also gave a relative viability (Trametinib + Tozasertib; first compound 0.25 µM) of 0.525, a relative viability ([1]; first compound 0.02 µM) of 0.341 and a relative viability ([1]; first compound 0.06325 µM) of 0.341. The relative viability ([1]; first compound 0.2 µM) was 0.296, the relative viability ([1]; first compound 0.6325 µM) was 0.513 and the relative viability ([1]; first compound 2 µM) was 0.36. It also gave a relative viability ([2]; first compound 0.02 µM) of 1.15, a relative viability ([2]; first compound 0.06325 µM) of 1.21 and a relative viability ([2]; first compound 0.2 µM) of 1.19. For the same cell line, the relative viability ([2]; first compound 0.6325 µM) was 1.06 and the relative viability ([2]; first compound 2 µM) was 1.05.

NCI-H460 gave a relative viability (Trametinib + Navitoclax; first compound 0.0025 µM) of 1.08, a relative viability (Trametinib + Navitoclax; first compound 0.007906 µM) of 0.981 and a relative viability (Trametinib + Navitoclax; first compound 0.025 µM) of 0.727. The relative viability (Trametinib + Navitoclax; first compound 0.07906 µM) was 0.277, the relative viability (Trametinib + Navitoclax; first compound 0.25 µM) was 0.0346 and the relative viability (Trametinib + Tozasertib; first compound 0.0025 µM) was 0.267. It also gave a relative viability (Trametinib + Tozasertib; first compound 0.007906 µM) of 0.262, a relative viability (Trametinib + Tozasertib; first compound 0.025 µM) of 0.278 and a relative viability (Trametinib + Tozasertib; first compound 0.07906 µM) of 0.152. For the same cell line, the relative viability (Trametinib + Tozasertib; first compound 0.25 µM) was 0.0343, the relative viability ([1]; first compound 0.02 µM) was 0.0416 and the relative viability ([1]; first compound 0.06325 µM) was 0.0387. It also gave a relative viability ([1]; first compound 0.2 µM) of 0.0352, a relative viability ([1]; first compound 0.6325 µM) of 0.0268 and a relative viability ([1]; first compound 2 µM) of 0.0415. It also gave a relative viability ([2]; first compound 0.02 µM) of 0.627, a relative viability ([2]; first compound 0.06325 µM) of 0.576 and a relative viability ([2]; first compound 0.2 µM) of 0.263. It also gave a relative viability ([2]; first compound 0.6325 µM) of 0.677 and a relative viability ([2]; first compound 2 µM) of 0.574.

NCI-H596 showed a relative viability (Trametinib + Navitoclax; first compound 0.0025 µM) of 0.893, a relative viability (Trametinib + Navitoclax; first compound 0.007906 µM) of 0.624 and a relative viability (Trametinib + Navitoclax; first compound 0.025 µM) of 0.525. For the same cell line, the relative viability (Trametinib + Navitoclax; first compound 0.07906 µM) was 0.498, the relative viability (Trametinib + Navitoclax; first compound 0.25 µM) was 0.363 and the relative viability (Trametinib + Tozasertib; first compound 0.0025 µM) was 0.867. It also gave a relative viability (Trametinib + Tozasertib; first compound 0.007906 µM) of 0.733, a relative viability (Trametinib + Tozasertib; first compound 0.025 µM) of 0.602 and a relative viability (Trametinib + Tozasertib; first compound 0.07906 µM) of 0.784. The relative viability (Trametinib + Tozasertib; first compound 0.25 µM) was 0.464, the relative viability ([1]; first compound 0.02 µM) was 1 and the relative viability ([1]; first compound 0.06325 µM) was 1.01. It also gave a relative viability ([1]; first compound 0.2 µM) of 0.858, a relative viability ([1]; first compound 0.6325 µM) of 0.93 and a relative viability ([1]; first compound 2 µM) of 0.866. It also gave a relative viability ([2]; first compound 0.02 µM) of 1, a relative viability ([2]; first compound 0.06325 µM) of 1.04 and a relative viability ([2]; first compound 0.2 µM) of 0.92. For the same cell line, the relative viability ([2]; first compound 0.6325 µM) was 1 and the relative viability ([2]; first compound 2 µM) was 1.21.

In the case of NCI-H647, the relative viability (Trametinib + Navitoclax; first compound 0.0025 µM) is reported as 1.01, the relative viability (Trametinib + Navitoclax; first compound 0.007906 µM) is reported as 1.07 and the relative viability (Trametinib + Navitoclax; first compound 0.025 µM) is reported as 0.834. The relative viability (Trametinib + Navitoclax; first compound 0.07906 µM) was 0.55, the relative viability (Trametinib + Navitoclax; first compound 0.25 µM) was 0.267 and the relative viability (Trametinib + Tozasertib; first compound 0.0025 µM) was 0.188. It also gave a relative viability (Trametinib + Tozasertib; first compound 0.007906 µM) of 0.216, a relative viability (Trametinib + Tozasertib; first compound 0.025 µM) of 0.261 and a relative viability (Trametinib + Tozasertib; first compound 0.07906 µM) of 0.216. For the same cell line, the relative viability (Trametinib + Tozasertib; first compound 0.25 µM) was 0.136, the relative viability ([1]; first compound 0.02 µM) was 0.177 and the relative viability ([1]; first compound 0.06325 µM) was 0.124. For the same cell line, the relative viability ([1]; first compound 0.2 µM) was 0.192, the relative viability ([1]; first compound 0.6325 µM) was 0.128 and the relative viability ([1]; first compound 2 µM) was 0.324. For the same cell line, the relative viability ([2]; first compound 0.02 µM) was 0.348, the relative viability ([2]; first compound 0.06325 µM) was 0.418 and the relative viability ([2]; first compound 0.2 µM) was 0.0952. It also gave a relative viability ([2]; first compound 0.6325 µM) of 0.304 and a relative viability ([2]; first compound 2 µM) of 0.378.

For NCI-H727, the relative viability (Trametinib + Navitoclax; first compound 0.0025 µM) was 0.158, the relative viability (Trametinib + Navitoclax; first compound 0.007906 µM) was 0.117 and the relative viability (Trametinib + Navitoclax; first compound 0.025 µM) was 0.0956. For the same cell line, the relative viability (Trametinib + Navitoclax; first compound 0.07906 µM) was 0.0926, the relative viability (Trametinib + Navitoclax; first compound 0.25 µM) was 0.0927 and the relative viability (Trametinib + Tozasertib; first compound 0.0025 µM) was 0.353. For the same cell line, the relative viability (Trametinib + Tozasertib; first compound 0.007906 µM) was 0.337, the relative viability (Trametinib + Tozasertib; first compound 0.025 µM) was 0.287 and the relative viability (Trametinib + Tozasertib; first compound 0.07906 µM) was 0.231. For the same cell line, the relative viability (Trametinib + Tozasertib; first compound 0.25 µM) was 0.279, the relative viability ([1]; first compound 0.02 µM) was 0.365 and the relative viability ([1]; first compound 0.06325 µM) was 0.329. It also gave a relative viability ([1]; first compound 0.2 µM) of 0.394, a relative viability ([1]; first compound 0.6325 µM) of 0.4 and a relative viability ([1]; first compound 2 µM) of 0.271. The relative viability ([2]; first compound 0.02 µM) was 0.575, the relative viability ([2]; first compound 0.06325 µM) was 0.563 and the relative viability ([2]; first compound 0.2 µM) was 0.405. The relative viability ([2]; first compound 0.6325 µM) was 0.591 and the relative viability ([2]; first compound 2 µM) was 0.511.

With NCI-H838 the relative viability (Trametinib + Navitoclax; first compound 0.0025 µM) was 1.05, the relative viability (Trametinib + Navitoclax; first compound 0.007906 µM) was 0.973 and the relative viability (Trametinib + Navitoclax; first compound 0.07906 µM) was 1.01. It also gave a relative viability (Trametinib + Navitoclax; first compound 0.25 µM) of 0.718, a relative viability (Trametinib + Tozasertib; first compound 0.0025 µM) of 0.275 and a relative viability (Trametinib + Tozasertib; first compound 0.007906 µM) of 0.24. The relative viability (Trametinib + Tozasertib; first compound 0.025 µM) was 0.225, the relative viability (Trametinib + Tozasertib; first compound 0.07906 µM) was 0.217 and the relative viability (Trametinib + Tozasertib; first compound 0.25 µM) was 0.22. It also gave a relative viability ([1]; first compound 0.02 µM) of 0.314, a relative viability ([1]; first compound 0.06325 µM) of 0.336 and a relative viability ([1]; first compound 0.2 µM) of 0.345. It also gave a relative viability ([1]; first compound 0.6325 µM) of 0.269, a relative viability ([1]; first compound 2 µM) of 0.325 and a relative viability ([2]; first compound 0.02 µM) of 0.81. For the same cell line, the relative viability ([2]; first compound 0.06325 µM) was 0.753, the relative viability ([2]; first compound 0.2 µM) was 0.789 and the relative viability ([2]; first compound 0.6325 µM) was 0.871. For the same cell line, the relative viability ([2]; first compound 2 µM) was 0.632.

Work on NCI-H1355 yielded a relative viability (Trametinib + Navitoclax; first compound 0.0025 µM) of 0.764, a relative viability (Trametinib + Navitoclax; first compound 0.007906 µM) of 0.832 and a relative viability (Trametinib + Navitoclax; first compound 0.025 µM) of 0.51. The relative viability (Trametinib + Navitoclax; first compound 0.07906 µM) was 0.563, the relative viability (Trametinib + Navitoclax; first compound 0.25 µM) was 0.414 and the relative viability (Trametinib + Tozasertib; first compound 0.0025 µM) was 0.588. For the same cell line, the relative viability (Trametinib + Tozasertib; first compound 0.007906 µM) was 0.463, the relative viability (Trametinib + Tozasertib; first compound 0.025 µM) was 0.418 and the relative viability (Trametinib + Tozasertib; first compound 0.07906 µM) was 0.394. It also gave a relative viability (Trametinib + Tozasertib; first compound 0.25 µM) of 0.318, a relative viability ([1]; first compound 0.02 µM) of 0.65 and a relative viability ([1]; first compound 0.06325 µM) of 0.623. The relative viability ([1]; first compound 0.2 µM) was 0.669, the relative viability ([1]; first compound 0.6325 µM) was 0.533 and the relative viability ([1]; first compound 2 µM) was 0.629. It also gave a relative viability ([2]; first compound 0.02 µM) of 0.715, a relative viability ([2]; first compound 0.06325 µM) of 0.708 and a relative viability ([2]; first compound 0.2 µM) of 0.637. The relative viability ([2]; first compound 0.6325 µM) was 0.606 and the relative viability ([2]; first compound 2 µM) was 0.642.

NCI-H1395 gave a relative viability (Trametinib + Navitoclax; first compound 0.0025 µM) of 1.17, a relative viability (Trametinib + Navitoclax; first compound 0.007906 µM) of 1.01 and a relative viability (Trametinib + Navitoclax; first compound 0.025 µM) of 1.27. It also gave a relative viability (Trametinib + Navitoclax; first compound 0.07906 µM) of 1.14, a relative viability (Trametinib + Navitoclax; first compound 0.25 µM) of 0.685 and a relative viability (Trametinib + Tozasertib; first compound 0.0025 µM) of 0.797. It also gave a relative viability (Trametinib + Tozasertib; first compound 0.007906 µM) of 0.73, a relative viability (Trametinib + Tozasertib; first compound 0.025 µM) of 0.721 and a relative viability (Trametinib + Tozasertib; first compound 0.07906 µM) of 0.718. It also gave a relative viability (Trametinib + Tozasertib; first compound 0.25 µM) of 0.548, a relative viability ([1]; first compound 0.02 µM) of 0.876 and a relative viability ([1]; first compound 0.06325 µM) of 0.595. The relative viability ([1]; first compound 0.2 µM) was 0.521, the relative viability ([1]; first compound 0.6325 µM) was 0.696 and the relative viability ([1]; first compound 2 µM) was 0.669. For the same cell line, the relative viability ([2]; first compound 0.02 µM) was 0.385, the relative viability ([2]; first compound 0.06325 µM) was 0.374 and the relative viability ([2]; first compound 0.2 µM) was 0.364. The relative viability ([2]; first compound 0.6325 µM) was 0.407 and the relative viability ([2]; first compound 2 µM) was 0.403.
